Laboratory results reported in patent publication US5212320A, “Indole derivatives and their use for testosterone 5-alpha-reductase-mediated diseases” (Fujisawa Pharmaceutical Co., Ltd., priority 1990, dated 1993).
Structures can show the parent of a compound that is named as a salt.

target: testosterone 5α-reductase; assay: Inhibitory activity on testosterone 5α-reductase in rats (prostatic testosterone 5α-reductase assay); format: biochemical, rat (Spraque-Dawley male; details: rat ventral prostate suspension; 2.2×10^-9 M 1,2,6,7-^3H-testosterone/testosterone; 50 μM NADPH; pH 6.5; 37° C., 30 minutes
Excerpt: [2] INHIBITORY ACTIVITY ON TESTOSTERONE 5α-REDUCTASE IN RATS
1,2,6,7-^3 H-Testosterone (85-105 Ci/mmol): 1,2,6,7-^3 H-Testosterone (85-105 Ci/mmol) is a mixture of 1,2,6,7-^3 H-testosterone and testosterone which includes 85-105 Ci of 1,2,6,7-^3H-testosterone per mmol of testosterone and is purchased from New England Nuclear, Boston, Mass., U.S.A.
Aquazol-2 (Aquazol-2 Universal LSC Cocktail): trademark, purchased from New England Nuclear, Boston, Mass., U.S.A.
Mature Spraque-Dawley male rats (7-8 weeks old) were sacrificed by diethyl ether. The ventral prostates were dissected to be free of their capsules and their combined volume was measured by displacement in several milliliters of ice-cold medium A (0.32M sucrose, 0.1 mM dithiothreitol and 20 mM scdium phosphate, pH 6.5). Unless specified, all the following procedures were carried out at 0°-4° C. The prostates were drained, minced, and then homogenized in 3-4 tissue volumes of medium A with Pyrex-glass homogenizer. The homogenate was fractioned by differential centrifugations at 3,000 g for 15 minutes. The resulting pellets were resuspended in medium A. The suspension (20-30 mg protein/ml) was stored at -80° C.
The reaction solution contains 1 mM dithiothreitol, 40 mM sodium phosphate pH 6.5, 50 μM NADPH, 1,2,6,7-^3 H-testosterone/testosterone (2.2×10^-9 M) and the suspension prepared above (0.8 mg of protein) in a total volume of 565 μl. Test Compound was added in 10 μl of 10% ethanol whereas control tubes received the same volume of 10% ethanol. The reaction was started with the addition of the enzyme suspension. After incubation at 37° C. for 30 minutes, the reaction was extracted with 1 ml of ethyl acetate. Fifty μl of ethyl acetate phase was chromatographed on a Merck silica plastic sheet Kieselgel 60 F254, using ethyl acetate: cyclohexane (1:1) as the developing solvent system. The plastic sheet was air dried and cut the testosterone and the 5α-dihydrotestosterone areas. The radioactivity was counted in 5 ml of Aquazol-2 in Packard scintillation counter (PACKARD TRI - CARB 4530), and an inhibitory ratio was calculated.

SMILES	IC50
CC(C)Cc1ccc(C(Nc2cccc(C(=O)c3cn(CCCC(=O)O)c4ccccc34)c2)c2ccc(CC(C)C)cc2)cc1 [(1), 4-[3-[3-[Bis(4-isobutylphen-yl)methylamino]benzoyl]indol-1-yl]butyric acid]	5.5 nM
Cc1c(C(=O)c2cccc(NC(c3ccc(CC(C)C)cc3)c3ccc(CC(C)C)cc3)c2)c2ccccc2n1CCCC(=O)O [(2), 4-[3-[3-[Bis(4-isobutylphenyl)methylamino]benzoyl]-2-methylindol-1-yl]butyric acid]	8.6 nM
CC(C)Cc1ccc(C(Oc2ccc(C(=O)c3cn(CCCC(=O)O)c4ccccc34)cc2)c2ccc(CC(C)C)cc2)cc1 [(3), 4-[3-[4-[Bis(4-isobutylphenyl)methoxy]benzoyl]indol-1-yl]butyric acid]	3.5 nM
CC(C)Cc1ccc(C(C)Oc2ccc(C(=O)c3cn(CCCC(=O)O)c4ccccc34)cc2)cc1 (centres unmarked) [(4), 4-[3-[4-[1-(4-Isobutylphenyl)ethoxy]benzoyl]indol-1-yl]butyric acid]	3.1 nM
CC(C)Cc1ccc(C(Cc2cccc(C(=O)c3cn(CCCC(=O)O)c4ccccc34)c2)c2ccc(CC(C)C)cc2)cc1 [(5), 4-[3-[3-[2,2-Bis(4-isobutylphenyl)ethyl]benzoyl]indol-1-yl]butyric acid]	7.4 nM
O=C(O)CCCn1cc(C(=O)c2cccc(CN3c4ccccc4CCc4ccccc43)c2)c2ccccc21 [(6), 4-[3-[3-(10,11-Dihydro-5H-dibenz[b,f]azepin-5-ylmethyl)benzoyl]indol-1-yl]butyric acid]	0.93 nM
CC(C)Cc1ccc(CNc2cc(NCc3ccc(CC(C)C)cc3)cc(C(=O)c3cn(CCCC(=O)O)c4ccccc34)c2)cc1 [(7), 4-[3-[3,5-Bis[(4-isobutylbenzyl)amino]benzoyl]indol-1-yl]butyric acid dihydrochloride]	3.7 nM
CCCCC(Oc1ccc(C(=O)c2cn(CCCC(=O)O)c3ccccc23)cc1)c1ccc(CC(C)C)cc1 (centres unmarked) [(8)]	0.66 nM
